Reference: patent US10064843B2, “Bis-amide derivative and use thereof” (University-Industry Cooperation Group of Kyung Hee …, priority 2013, dated 2018)

Key:
[1] = in vitro; type: cell-based, hepatitis C virus; conditions: genotype 1b Con1b; FIG. 11a
Protocol: (§1) The effect of WJCPA-126 was determined in percentage of fluorescent cells in each image using sub-genotype 1b replicated cells. EC50 and CC50 were determined via nonlinear regression analysis using GraphPad Prism (GraphPad Software). The GFP expression level was quantitated and shown in the left panel. The images of GFP at the level of replicated cells were obtained while increasing the concentration of WJCPA-126 and are shown on the right panel.

[2] = tested on: genotype 1b (Con1b) replication cells; assay: microbe, parasite or virus in culture; type: cell-based, hepatitis C virus; conditions: Hepatitis C virus
Protocol: as §1

[3] = tested on: HCV replicon cells; assay: Western blot of NS5A and NS5B in HCV replicon cells (total lysate, membrane fraction); type: cell-based, hepatitis C virus
Protocol: Example 10: Preparation of a Membrane Fraction
Cells grown to about 80% confluence in a culture dish with a diameter of 10 cm were scraped using PBS. The cells were pelleted by centrifugation at 220 g for 10 minutes. The pellet was resuspended in 1 mL hypotonic buffer (10 mM Tris-HCL pH 7.5, 10 mM KCL, 1.5 mM MgCl2, 0.5 mM PMSF (phenylmethylsulfonyl fluoride), and 2 μg/mL leupeptin), and incubated at 4° C. for 10 minutes. The suspension was homogenized using 75 strokes of a glass dounce homogenizer using a tight-fitting pestle (Sigma, St. Louis, Mo., USA). Nuclei and undestroyed cells were removed by centrifugation at 220 g for 10 minutes at 4° C. The cell membrane in the thus-obtained supernatant was directly centrifuged at 68,000 g for 1 hour at 4° C. using an ultracentrifuge tube in a micro-ultracentrifuge (Hitachi, Japan). Upon centrifugation, the coarse replication complex fraction was recovered from the pellet and used for western blot analysis.
Example 14: Western Blot Analysis
Cell extracts were separated by SDS-PAGE and then transferred to a nitrocellulose membrane. After blocking, the membrane was incubated with indicated primary antibody and subsequently incubated with secondary antibody. The samples were detected with enhanced chemiluminescence reagents (Santa Cruz, Calif., USA).

[4] = tested on: HCV-Con1b replicon; assay: HCV mouse model (NOD/SCID mice transplanted with Huh7 HCV-Con1b replicon cells); conditions: 50 mg/kg intraperitoneally daily, two weeks
Protocol: Five to six-week old immunodeficient NOD/SCID mice (Charles River Laboratories, USA) were used. The use of experimental animals and experimental protocol (KHUASP (SE)-11-045) was approved by the Institutional Animal Care and Use Committee of Kyung Hee University (Seoul, Korea). The control Huh7 cells or the Huh7 cells including the HCV-Con1b replicon were injected into mice intrasplenically (1×10^6 cells/200 μL of PBS). Cell transplantation and surgical procedures were performed under anesthesia along with a prophylactic antibiotic. […] Each treatment group consisted of 5 mice. Upon completion of the treatment, the mice were sacrificed and liver tissues were collected from them for analysis.
Murine liver tissues were dissected and then cryoprotected in 30% sucrose for the preparation of paraffin-embedded samples. Paraffin samples for Hematoxylin and Eosin (H&E) staining were prepared. After removing paraffin, rehydrated samples were incubated with monoclonal antibodies to human hepatocytes (Hep par 1) and HCV NS5A (Santa Cruz, Calif., USA), which were diluted at a ratio of 1:50, at 4° C. overnight. […] The nuclei were stained with DAPI for 5 minutes and analyzed using a confocal microscope.
HCV RNA was extracted from liver tissue by Trizol method. Mouse liver tissues were mechanically destroyed and lysed in Trizol (Invitrogen, Carlsbad, Calif., USA). The quantitative analysis of HCV RNA was performed using real-time transcription PCR.

[5] = tested on: NFAT1; assay: NFAT dephosphorylation by western blot and immunofluorescence; type: cell-based, mouse
Protocol: Upon stimulation, the cells were washed with sterile PBS, suspended in lysis buffer (Invitrogen, Carlsbad, Calif., USA), incubated on ice for 10 minutes, and centrifuged at 19,000 g for 15 minutes. The phosphorylation state of the NFAT protein in the supernatant was confirmed by western blot analysis using monoclonal anti-NFATc 1. For the confirmation of NFAT1 localization using a confocal microscope, the cells were washed and then fixed by treating with 3.7% formaldehyde at room temperature for 20 minutes. […] Upon incubation, the cells were washed twice with PBS and incubated in a dark room at room temperature with secondary antibody, which was conjugated with Alexa 546 (Invitrogen, Carlsbad, Calif., USA) diluted in PBS containing 3% BSA at a 1:200 ratio, for 2 hours. […] Finally, the cells were washed once with PBS and mounted onto glass slides using a coverslip and a mounting solution (Vector Mount, Calif., USA). The images were captured via Zeiss confocal laser scanning microscope (Zeiss, Germany).

COc1cc(C(C(=O)NC2CCCCC2)N(C(=O)Cc2c[nH]c3ccccc23)c2ccc(C(C)C)cc2)cc(OC)c1OC (stereo not drawn) [WJCPA-126, N-cyclohexyl-2-[(2-1H-indol-3-yl-acetyl)-(4-isopropyl-phenyl)-amino]-2-(3,4,5-trimethoxy-phenyl)-acetamide]
CC50 [1]: 12.4 ± 2.1 µM | EC50 [2]: 0.73 ± 0.1 µM | levels of NS5A and NS5B proteins ([3]; 0.5 μM to 4 μM, FIG. 10a): decrease in the levels of NS5A and NS5B proteins in a dose-dependent manner | NS5A and NS5B protein levels in total lysate and membrane fraction ([3]; 2 μM, HCV Con1b replicon cells, FIG. 10b): decrease the protein levels of NS5A and NS5B in both the total lysate and the membrane fraction | body weight ([4]; FIG. 19a): did not show any noticeable change in body weight | HCV RNA level in liver ([4]; FIG. 19b): relatively higher level of inhibition on the HCV RNA level than the CsA treatment | HCV NS5A in transplanted mouse liver tissue (immunofluorescence) ([4]; FIG. 20): only faintly detected | NFAT1 migration into the nucleus ([5]; ionomycin stimulation, FIG. 9b): significant localization of NFAT1 within the nucleus | phosphorylation state of NFAT1 ([5]; ionomycin-stimulated, FIG. 9a): maintained the dephosphorylated state of NFAT1
